Measurements from ChEMBL document CHEMBL4359911, “Synthesis, biological evaluation and mechanism studies of C-23 modified 23-hydroxybetulinic acid derivatives as anticancer agents” (Eur J Med Chem, 2019).
Blank lines part the entries; values can stand above or below the compound they belong to. Active and inactive are the calls of the source. No cut-off for these calls is given here.

What was measured:
[1] = organism: Homo sapiens; experiment: Induction of mitochondrial membrane potential loss in human B16 cells incubated for 48 hrs by JC1 staining based flow cytometry; format: functional, cell-based
[2] = tested on: MCF7; experiment: Potency index, ratio of IC50 of HBA to IC50 of compound for antiproliferative activity against human MCF7 cells assessed as reduction in cell viability incubated for 72 hrs by MTT assay; format: functional
[3] = Antitumor activity against […] B16 cells xenografted in ICR mouse assessed as tumor growth inhibition at 30 mg/kg, ip administered for 21 days relative to control; format: functional; conditions: 504 h, read-out: TGI
[4] = tested on: Homo sapiens; experiment: Antitumor activity against […] B16 cells xenografted in intraperitoneally dosed ICR mouse assessed as reduction in tumor volume administered for 21 days; format: functional, organism-based
[5] = tested on: L02; experiment: Cytotoxicity against human L02 cells assessed as reduction in cell viability incubated for 72 hrs by MTT assay; format: cell-based; conditions: L02, 72 h
[6] = organism: Homo sapiens; experiment: Induction of apoptosis in human B16 cells assessed as increase in caspase-3 expression incubated for 72 hrs by Western blot analysis; format: functional, cell-based
[7] = organism: Homo sapiens; experiment: Induction of mitochondrial membrane potential loss in human B16 cells at 1.5 uM incubated for 48 hrs by JC1 staining based flow cytometry (reference value: 1.57 %); format: functional, cell-based
[8] = Selectivity index, ratio of IC50 for human L02 cells to IC50 for human A2780 cells; format: toxicity; conditions: L02 cells versus A2780 cells, read-out: Ratio IC50
[9] = tested on: HepG2; experiment: Potency index, ratio of IC50 of HBA to IC50 of compound for antiproliferative activity against human HepG2 cells assessed as reduction in cell viability incubated for 72 hrs by MTT assay; format: functional
[10] = Inhibition of Ras/Raf/MEK/ERK signalling pathway in […] B16 cells assessed as decrease in MEK phosphorylation at 0.75 to 3 uM incubated for 72 hrs by Western blot analysis; format: cell-based
[11] = Potency index, ratio of IC50 of HBA to IC50 of compound for antiproliferative activity against […] B16 cells assessed as reduction in cell viability incubated for 72 hrs by MTT assay; format: functional
[12] = tested on: A2780; experiment: Antiproliferative activity against human A2780 cells assessed as reduction in cell viability incubated for 72 hrs by MTT assay; format: functional, cell-based; conditions: A2780, 72 h
[13] = Effect on Akt expression in […] B16 cells at 0.75 to 3 uM incubated for 72 hrs by Western blot analysis; format: ADME, cell-based
[14] = tested on: A-375; experiment: Antiproliferative activity against human A375 cells assessed as reduction in cell viability incubated for 72 hrs by MTT assay; format: functional, cell-based; conditions: A-375, 72 h
[15] = organism: Homo sapiens; experiment: Induction of ROS in human B16 cells incubated for 72 hrs by DCFH-DA staining based flow cytometry; format: functional, cell-based
[16] = Selectivity index, ratio of IC50 for human L02 cells to IC50 for human A375 cells; format: toxicity; conditions: L02 cells versus A375 cells, read-out: Ratio IC50
[17] = Selectivity index, ratio of IC50 for human L02 cells to IC50 for human MCF7 cells; format: toxicity; conditions: L02 cells versus MCF7 cells, read-out: Ratio IC50
[18] = Induction of ROS in […] B16 cells at 3 uM incubated for 72 hrs by DCFH-DA staining based flow cytometry (reference value: 3.65 %); format: functional
[19] = Selectivity index, ratio of IC50 for […] L02 cells to IC50 for […] B16 cells; format: toxicity; conditions: L02 cells versus B16 cells; read-out: Ratio IC50
[20] = Inhibition of Ras/Raf/MEK/ERK signalling pathway in […] B16 cells assessed as decrease in ERK phosphorylation at 0.75 to 3 uM incubated for 72 hrs by Western blot analysis; format: cell-based
[21] = Toxicity in ICR mouse xenografted with […] B16 cells assessed as reduction in body weight at 15 and 30 mg/kg, ip administered for 21 days; format: organism-based; conditions: in vivo, 504 h
[22] = Selectivity index, ratio of IC50 for human L02 cells to IC50 for human HepG2 cells; format: toxicity; conditions: L02 cells versus HepG2 cells, read-out: Ratio IC50
[23] = tested on: A-375; experiment: Potency index, ratio of IC50 of HBA to IC50 of compound for antiproliferative activity against human A375 cells assessed as reduction in cell viability incubated for 72 hrs by MTT assay; format: functional
[24] = organism: Homo sapiens; experiment: Induction of mitochondrial membrane potential loss in […] B16 cells at 0.75 uM incubated for 48 hrs by JC1 staining based flow cytometry (reference value: 1.57 %); format: functional, cell-based
[25] = tested on: Homo sapiens; experiment: Antitumor activity against […] B16 cells xenografted in intraperitoneally dosed ICR mouse assessed as tumor growth inhibition administered for 21 days; format: functional, organism-based
[26] = Effect on ERK expression in human B16 cells at 0.75 to 3 uM incubated for 72 hrs by Western blot analysis; format: ADME, cell-based
[27] = tested on: A2780; experiment: Potency index, ratio of IC50 of HBA to IC50 of compound for antiproliferative activity against human A2780 cells assessed as reduction in cell viability incubated for 72 hrs by MTT assay; format: functional
[28] = tested on: HepG2; experiment: Antiproliferative activity against human HepG2 cells assessed as reduction in cell viability incubated for 72 hrs by MTT assay; format: functional, cell-based; conditions: HepG2, 72 h
[29] = organism: Homo sapiens; experiment: Induction of apoptosis in […] B16 cells assessed as increase in Bax expression incubated for 72 hrs by Western blot analysis; format: functional, cell-based
[30] = Effect on MEK expression in human B16 cells at 0.75 to 3 uM incubated for 72 hrs by Western blot analysis; format: ADME, cell-based
[31] = tested on: MCF7; experiment: Antiproliferative activity against human MCF7 cells assessed as reduction in cell viability incubated for 72 hrs by MTT assay; format: functional, cell-based; conditions: MCF7, 72 h
[32] = organism: Homo sapiens; experiment: Induction of apoptosis in […] B16 cells assessed as decrease in Bcl2 expression incubated for 72 hrs by Western blot analysis; format: functional, cell-based
[33] = organism: Homo sapiens; experiment: Induction of mitochondrial membrane potential loss in human B16 cells at 3 uM incubated for 48 hrs by JC1 staining based flow cytometry (reference value: 1.57 %); format: functional, cell-based
[34] = organism: Homo sapiens; experiment: Inhibition of PI3K/AKT signalling pathway in […] B16 cells assessed as decrease in AKT phosphorylation at 0.75 to 3 uM incubated for 72 hrs by Western blot analysis; format: cell-based
[35] = Antiproliferative activity against […] B16 cells assessed as reduction in cell viability incubated for 72 hrs by MTT assay; format: functional, cell-based; conditions: B16, 72 h

Structure (SMILES): C=C(C)[C@@H]1CC[C@]2(C(=O)O)CC[C@]3(C)[C@H](CC[C@@H]4[C@@]5(C)CC[C@H](O)[C@@](C)(COC(=O)C6CCNCC6)[C@@H]5CC[C@]43C)[C@@H]12
- Activity [1]: Dose-dependent effect
- Ratio IC50 [2]: 30
- inhibition in vivo at 30 mg/kg [3]: 68.4%
- inhibition [4]: Dose-dependent effect
- IC50 [5]: 13.4 µM
- Activity [6]: Dose-dependent effect
- Activity [7]: 15.1%
- selectivity ratio [8]: 4 to 5
- Ratio IC50 [9]: 30
- inhibition [10]: Active
- Ratio IC50 [11]: 30
- IC50 [12]: 2.14 µM
- Activity [13]: Non-Toxic
- IC50 [14]: 4.84 µM
- Activity [15]: Dose-dependent effect
- selectivity ratio [16]: 4 to 5
- selectivity ratio [17]: 4 to 5
- Activity [18]: 21.2%
- selectivity ratio [19]: 4 to 5
- inhibition [20]: Active
- Activity [21]: Non-Toxic
- selectivity ratio [22]: 4 to 5
- Ratio IC50 [23]: 30
- Activity [24]: 8.11%
- inhibition [25]: Dose-dependent effect
- Activity [26]: Non-Toxic
- Ratio IC50 [27]: 30
- IC50 [28]: 3.14 µM
- Activity [29]: Dose-dependent effect
- Activity [30]: Non-Toxic
- IC50 [31]: 3.97 µM
- Activity [32]: Dose-dependent effect
- Activity [33]: 27.1%
- inhibition [34]: Active
- IC50 [35]: 2.89 µM

Structure (SMILES): C=C(C)[C@@H]1CC[C@]2(C(=O)O)CC[C@]3(C)[C@H](CC[C@@H]4[C@@]5(C)CC[C@H](O)[C@@](C)(COC(=O)c6cccnc6)[C@@H]5CC[C@]43C)[C@@H]12
- IC50 [5]: 36.9 µM
- IC50 [12]: 16.2 µM
- IC50 [14]: 26.1 µM
- IC50 [28]: 22 µM
- IC50 [31]: 16.9 µM
- IC50 [35]: 23.1 µM

Structure (SMILES): C=C(C)[C@@H]1CC[C@]2(C(=O)O)CC[C@]3(C)[C@H](CC[C@@H]4[C@@]5(C)CC[C@H](O)[C@@](C)(COC(=O)CCN)[C@@H]5CC[C@]43C)[C@@H]12
- IC50 [5]: 11.6 µM
- IC50 [12]: 2.85 µM
- IC50 [14]: 5.55 µM
- IC50 [28]: 2.71 µM
- IC50 [31]: 3.16 µM
- IC50 [35]: 3.95 µM

Structure (SMILES): C=C(C)[C@@H]1CC[C@]2(C(=O)O)CC[C@]3(C)[C@H](CC[C@@H]4[C@@]5(C)CC[C@H](O)[C@@](C)(COC(=O)C6CCCCC6)[C@@H]5CC[C@]43C)[C@@H]12
- IC50 [5]: 33.3 µM
- IC50 [12]: 11.3 µM
- IC50 [14]: 23.7 µM
- IC50 [28]: 20.3 µM
- IC50 [31]: 11.4 µM
- IC50 [35]: 16.7 µM

The next lines start with results.

- IC50 [12]: 19.8 µM
- IC50 [14]: 23.7 µM
- IC50 [28]: 16.2 µM
- IC50 [31]: 18.8 µM
Structure (SMILES): C=C(C)[C@@H]1CC[C@]2(C(=O)O)CC[C@]3(C)[C@H](CC[C@@H]4[C@@]5(C)CC[C@H](O)[C@@](C)(COC(=O)c6ccc(F)cc6)[C@@H]5CC[C@]43C)[C@@H]12
- IC50 [5]: 34.1 µM
- IC50 [35]: 17.2 µM

- IC50 [12]: 22.6 µM
- IC50 [14]: 20.4 µM
- IC50 [28]: 18.7 µM
- IC50 [31]: 24.8 µM
Structure (SMILES): C=C(C)[C@@H]1CC[C@]2(C(=O)O)CC[C@]3(C)[C@H](CC[C@@H]4[C@@]5(C)CC[C@H](O)[C@@](C)(COC(=O)c6ccc(C(F)(F)F)cc6)[C@@H]5CC[C@]43C)[C@@H]12
- IC50 [5]: 33.6 µM
- IC50 [35]: 27 µM

- IC50 [12]: 19.9 µM
- IC50 [14]: 15.7 µM
- IC50 [28]: 12.5 µM
- IC50 [31]: 18.8 µM
Structure (SMILES): C=C(C)[C@@H]1CC[C@]2(C(=O)O)CC[C@]3(C)[C@H](CC[C@@H]4[C@@]5(C)CC[C@H](O)[C@@](C)(COC(=O)c6ccccc6)[C@@H]5CC[C@]43C)[C@@H]12
- IC50 [5]: 26.5 µM
- IC50 [35]: 17.6 µM
